These are literature values, as cited in US6432422B1, “Creams containing vitamin D3 derivatives” (Chugai Seiyaku Kabushiki Kaisha, priority 1997, dated 2002).

Setting [1] is: organic solvents such as ethanol and chloroform.

For `C=C1/C(=C\C=C2/CCC[C@]3(C)[C@@H]([C@H](C)OCCC(C)(C)O)CC[C@@H]23)C[C@@H](O)C[C@@H]1O` [Maxacalcitol, 1α,3β-dihydroxy-20α-(3-hydroxy-3-methylbutyloxy)-9,10-seco-5,7,10(19)-pregnatriene], the “stability in aqueous solutions” value (aqueous solutions) is given as “unstable in aqueous solutions”. The “stability in base materials” value (base materials such as petrolatum) is “very high stability”. Also, under setting [1], the “solubility in organic solvents” value is “highly soluble” and the “stability in organic solvents” value is listed as “dramatically improved stability”. The solubility in water entry (water) is given as “scarcely soluble in water”. Further, the “effects on epidermal cells” value with epidermal cells is “epidermal cell growth-inhibiting and differentiation-inducing effects”.
